Results: US10202361B2, “Pyridazinones as herbicides” (E I DU PONT DE NEMOURS AND COMPANY, priority 2014, dated 2019)
Where two headings read alike, the source gives them in different places.

How the values were obtained:
Format in all cases: in vivo
[1] = test system: chickweed (common chickweed, Stellaria media); assay: Test C postemergence greenhouse herbicide test
[2] = test system: blackgrass (Alopecurus myosuroides); assay: Test C pre-/postemergence greenhouse herbicide test; details: Alopecurus myosuroides, Blackgrass, read-out: Plant response rating; for pest or weed control at 31 g/ha: 31 g ai/ha; for pest or weed control at 62 g/ha: 62 g ai/ha; for pest or weed control at 125 g/ha: 125 g ai/ha; for pest or weed control at 250 g/ha: 250 g ai/ha
Summary of the method: (§1)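 Seeds sown in loam soil–sand blend were treated preemergence; plants at 2 to 18 cm (1- to 4-leaf stage) in peat-based medium were treated postemergence. Test chemicals were formulated in a non-phytotoxic solvent mixture with surfactant. After 13 to 15 d in greenhouse, injury was rated visually versus controls, 0 (no effect) to 100 (complete control).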

[3] = test system: crabgrass, Large (large crabgrass, Digitaria sanguinalis); assay: as above; details: Digitaria sanguinalis, Crabgrass, Large, read-out: Plant response rating; for pest or weed control at 31 g/ha: 31 g ai/ha; for pest or weed control at 62 g/ha: 62 g ai/ha; for pest or weed control at 125 g/ha: 125 g ai/ha; for pest or weed control at 250 g/ha: 250 g ai/ha
Summary of the method: as §1

[4] = test system: velvetleaf (Abutilon theophrasti); assay: as above; details: Abutilon theophrasti, Velvetleaf, read-out: Plant response rating; for pest or weed control at 31 g/ha: 31 g ai/ha; for pest or weed control at 62 g/ha: 62 g ai/ha; for pest or weed control at 125 g/ha: 125 g ai/ha; for pest or weed control at 250 g/ha: 250 g ai/ha
Summary of the method: as §1

[5] = test system: oilseed rape (Brassica napus); assay: as above; details: Oilseed Rape
Summary of the method: as §1

[6] = test system: ryegrass, Italian (Italian ryegrass, Lolium multiflorum); assay: as above; details: Lolium multiflorum, Ryegrass, Italian, read-out: Plant response rating; for pest or weed control at 31 g/ha: 31 g ai/ha; for pest or weed control at 62 g/ha: 62 g ai/ha; for pest or weed control at 125 g/ha: 125 g ai/ha; for pest or weed control at 250 g/ha: 250 g ai/ha
Summary of the method: as §1

[7] = test system: foxtail, giant (giant foxtail, Setaria faberii); assay: as above; details: Setaria faberi, Foxtail, Giant, read-out: Plant response rating; for pest or weed control at 31 g/ha: 31 g ai/ha; for pest or weed control at 62 g/ha: 62 g ai/ha; for pest or weed control at 125 g/ha: 125 g ai/ha; for pest or weed control at 250 g/ha: 250 g ai/ha
Summary of the method: as §1

rice (Oryza sativa) = assay: Test B flooded paddy test; details: Oryza sativa, 312 h; Flood, 125 g ai/ha; scale of 0 to 100, 0 is no effect, 100 is complete control; 13 to 15 d; read-out: Plant response rating, Rice
Summary of the method: (§2)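 Visual ratings, 0 meaning no effect and 100 complete control, were made relative to untreated controls 13–15 d after treatment in a greenhouse. Treatment was by addition to paddy water 3 cm above the soil, maintained for the test, on 2-leaf-stage plants.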

[8] = test system: sedge, umbrella (small-flower umbrella sedge, Cyperus difformis); assay: Test B flooded paddy test; details: Cyperus difformis, 312 h; Flood, 125 g ai/ha; scale of 0 to 100, 0 is no effect, 100 is complete control; 13 to 15 d; read-out: Plant response rating, Sedge, Umbrella
Summary of the method: as §2

[9] = test system: ducksalad (Heteranthera limosa); assay: Test B flooded paddy test; details: Heteranthera limosa, 312 h; Flood, 125 g ai/ha; scale of 0 to 100, 0 is no effect, 100 is complete control; 13 to 15 d; read-out: Plant response rating, Ducksalad
Summary of the method: as §2

[10] = test system: barnyardgrass (Echinochloa crus-galli); assay: Test B flooded paddy test; details: Echinochloa crus-galli, 312 h; Flood, 125 g ai/ha; scale of 0 to 100, 0 is no effect, 100 is complete control; 13 to 15 d; read-out: Plant response rating, Barnyardgrass
Summary of the method: as §2

COc1cc(=O)n(-c2ccc(C(F)(F)F)cc2)nc1Cc1ccnc(C(F)(F)F)c1 [Compound 16, 5-methoxy-2-[4-(trifluoromethyl)phenyl]-6-[[2-(trifluoromethyl)-4-pyridinyl]methyl]-3(2H)-pyridazinone]
Plant response rating ([1]; 31 g ai/ha): 80 | Plant response rating ([1]; 62 g ai/ha): 90 | Plant response rating ([1]; 125 g ai/ha): 90 | Plant response rating ([1]; 250 g ai/ha): 98 | pest or weed control at 31 g/ha ([2]; post-emergence, Postemergence): 5% | pest or weed control at 62 g/ha ([2]; post-emergence, Postemergence): 5% | pest or weed control at 125 g/ha ([2]; post-emergence, Postemergence): 5% | pest or weed control at 250 g/ha ([2]; post-emergence, Postemergence): 10% | pest or weed control at 31 g/ha ([2]; pre-emergence, Preemergence): 40% | pest or weed control at 62 g/ha ([2]; pre-emergence, Preemergence): 50% | pest or weed control at 125 g/ha ([2]; pre-emergence, Preemergence): 60% | pest or weed control at 250 g/ha ([2]; pre-emergence, Preemergence): 90% | pest or weed control at 31 g/ha ([3]; post-emergence, Postemergence): 10% | pest or weed control at 62 g/ha ([3]; post-emergence, Postemergence): 25% | pest or weed control at 125 g/ha ([3]; post-emergence, Postemergence): 30% | pest or weed control at 250 g/ha ([3]; post-emergence, Postemergence): 35% | pest or weed control at 31 g/ha ([3]; pre-emergence, Preemergence): 98% | pest or weed control at 62 g/ha ([3]; pre-emergence, Preemergence): 98% | pest or weed control at 125 g/ha ([3]; pre-emergence, Preemergence): 100% | pest or weed control at 250 g/ha ([3]; pre-emergence, Preemergence): 100% | pest or weed control at 31 g/ha ([4]; post-emergence, Postemergence): 25% | pest or weed control at 62 g/ha ([4]; post-emergence, Postemergence): 50% | pest or weed control at 125 g/ha ([4]; post-emergence, Postemergence): 60% | pest or weed control at 250 g/ha ([4]; post-emergence, Postemergence): 75% | pest or weed control at 62 g/ha ([4]; pre-emergence, Preemergence): 80% | pest or weed control at 125 g/ha ([4]; pre-emergence, Preemergence): 100% | pest or weed control at 250 g/ha ([4]; pre-emergence, Preemergence): 100% | Plant response rating ([5]; Postemergence, 31 g ai/ha): 60 | Plant response rating ([5]; Postemergence, 62 g ai/ha): 60 | Plant response rating ([5]; Postemergence, 125 g ai/ha): 80 | Plant response rating ([5]; Preemergence, 31 g ai/ha): 65 | Plant response rating ([5]; Preemergence, 62 g ai/ha): 100 | Plant response rating ([5]; Preemergence, 125 g ai/ha): 100 | Plant response rating ([5]; Preemergence, 250 g ai/ha): 100 | pest or weed control at 31 g/ha ([6]; post-emergence, Postemergence): 5% | pest or weed control at 62 g/ha ([6]; post-emergence, Postemergence): 5% | pest or weed control at 125 g/ha ([6]; post-emergence, Postemergence): 15% | pest or weed control at 250 g/ha ([6]; post-emergence, Postemergence): 35% | pest or weed control at 31 g/ha ([6]; pre-emergence, Preemergence): 5% | pest or weed control at 62 g/ha ([6]; pre-emergence, Preemergence): 30% | pest or weed control at 125 g/ha ([6]; pre-emergence, Preemergence): 85% | pest or weed control at 250 g/ha ([6]; pre-emergence, Preemergence): 90% | pest or weed control at 31 g/ha ([7]; post-emergence, Postemergence): 15% | pest or weed control at 62 g/ha ([7]; post-emergence, Postemergence): 15% | pest or weed control at 125 g/ha ([7]; post-emergence, Postemergence): 30% | pest or weed control at 250 g/ha ([7]; post-emergence, Postemergence): 55% | pest or weed control at 31 g/ha ([7]; pre-emergence, Preemergence): 98% | pest or weed control at 62 g/ha ([7]; pre-emergence, Preemergence): 98% | pest or weed control at 125 g/ha ([7]; pre-emergence, Preemergence): 100% | pest or weed control at 250 g/ha ([7]; pre-emergence, Preemergence): 100% | plant injury at 125 g/ha (rice (Oryza sativa)): 35% | pest or weed control at 125 g/ha [8]: 80% | pest or weed control at 125 g/ha [9]: 20% | pest or weed control at 125 g/ha [10]: 45%

COc1cc(=O)n(-c2ccc(F)cc2)nc1Cc1ccnc(C(F)(F)F)c1 [Compound 17, 2-(4-fluorophenyl)-5-methoxy-6-[[2-(trifluoromethyl)-4-pyridinyl]methyl]-3 (2H)-pyridazinone]
Plant response rating ([1]; 31 g ai/ha): 70 | Plant response rating ([1]; 62 g ai/ha): 85 | Plant response rating ([1]; 125 g ai/ha): 85 | Plant response rating ([1]; 250 g ai/ha): 95 | pest or weed control at 31 g/ha ([2]; post-emergence, Postemergence): 5% | pest or weed control at 62 g/ha ([2]; post-emergence, Postemergence): 5% | pest or weed control at 125 g/ha ([2]; post-emergence, Postemergence): 5% | pest or weed control at 250 g/ha ([2]; post-emergence, Postemergence): 5% | pest or weed control at 31 g/ha ([2]; pre-emergence, Preemergence): 50% | pest or weed control at 62 g/ha ([2]; pre-emergence, Preemergence): 80% | pest or weed control at 125 g/ha ([2]; pre-emergence, Preemergence): 90% | pest or weed control at 250 g/ha ([2]; pre-emergence, Preemergence): 95% | pest or weed control at 31 g/ha ([3]; post-emergence, Postemergence): 10% | pest or weed control at 62 g/ha ([3]; post-emergence, Postemergence): 10% | pest or weed control at 125 g/ha ([3]; post-emergence, Postemergence): 15% | pest or weed control at 250 g/ha ([3]; post-emergence, Postemergence): 40% | pest or weed control at 31 g/ha ([3]; pre-emergence, Preemergence): 100% | pest or weed control at 62 g/ha ([3]; pre-emergence, Preemergence): 100% | pest or weed control at 125 g/ha ([3]; pre-emergence, Preemergence): 100% | pest or weed control at 250 g/ha ([3]; pre-emergence, Preemergence): 100% | pest or weed control at 31 g/ha ([4]; post-emergence, Postemergence): 20% | pest or weed control at 62 g/ha ([4]; post-emergence, Postemergence): 20% | pest or weed control at 125 g/ha ([4]; post-emergence, Postemergence): 30% | pest or weed control at 250 g/ha ([4]; post-emergence, Postemergence): 45% | pest or weed control at 62 g/ha ([4]; pre-emergence, Preemergence): 75% | pest or weed control at 125 g/ha ([4]; pre-emergence, Preemergence): 100% | pest or weed control at 250 g/ha ([4]; pre-emergence, Preemergence): 100% | Plant response rating ([5]; Postemergence, 31 g ai/ha): 5 | Plant response rating ([5]; Postemergence, 62 g ai/ha): 20 | Plant response rating ([5]; Postemergence, 125 g ai/ha): 25 | Plant response rating ([5]; Preemergence, 31 g ai/ha): 50 | Plant response rating ([5]; Preemergence, 62 g ai/ha): 100 | Plant response rating ([5]; Preemergence, 125 g ai/ha): 100 | Plant response rating ([5]; Preemergence, 250 g ai/ha): 100 | pest or weed control at 31 g/ha ([6]; post-emergence, Postemergence): 5% | pest or weed control at 62 g/ha ([6]; post-emergence, Postemergence): 5% | pest or weed control at 125 g/ha ([6]; post-emergence, Postemergence): 5% | pest or weed control at 250 g/ha ([6]; post-emergence, Postemergence): 5% | pest or weed control at 31 g/ha ([6]; pre-emergence, Preemergence): 5% | pest or weed control at 62 g/ha ([6]; pre-emergence, Preemergence): 10% | pest or weed control at 125 g/ha ([6]; pre-emergence, Preemergence): 70% | pest or weed control at 250 g/ha ([6]; pre-emergence, Preemergence): 75% | pest or weed control at 31 g/ha ([7]; post-emergence, Postemergence): 10% | pest or weed control at 62 g/ha ([7]; post-emergence, Postemergence): 10% | pest or weed control at 125 g/ha ([7]; post-emergence, Postemergence): 20% | pest or weed control at 250 g/ha ([7]; post-emergence, Postemergence): 45% | pest or weed control at 31 g/ha ([7]; pre-emergence, Preemergence): 100% | pest or weed control at 62 g/ha ([7]; pre-emergence, Preemergence): 100% | pest or weed control at 125 g/ha ([7]; pre-emergence, Preemergence): 100% | pest or weed control at 250 g/ha ([7]; pre-emergence, Preemergence): 100% | plant injury at 125 g/ha (rice (Oryza sativa)): 70% | pest or weed control at 125 g/ha [8]: 90% | pest or weed control at 125 g/ha [9]: 90% | pest or weed control at 125 g/ha [10]: 90%
